Patent US20120122860A1, “SOLID FORMS OF SULFONAMIDES AND AMINO ACIDS” (Plexxikon, Inc., priority 2009, published 2012)

Key:
[1] = Rat PK study of P-1496 free base, arginine and lysine complex; type: in vivo, Sprague-Dawley rats; parameters: AUC∞/dose: unit not given here; conditions: for AUC∞/dose / Cmax/dose: Table 10B, rats; for biopharmaceutical properties, comparison in words: rat PK, relative to P-1496 free base
Protocol: A PK study was carried out in Sprague-Dawley rats on the arginine or lysine complex of propane-1-sulfonic acid {2,4-difluoro-3-[5-(2-methoxy-pyrimidin-5-yl)-1H-pyrrolo[2,3-b]pyridine-3-carbonyl]-phenyl}-amide P-1496 (Murigenics, Berkeley, Calif.), dosing via […], with sampling of approximately 250 μL of blood via jugular veing in Lithium heparin tubes at 30 minutes, 1, 3, 6, 8, 12, 24, 36 and 48 hours. Blood samples were centrifuged at 4° C. for 10 minutes at RCF of 1,000, plasma was stored at […] and shipped frozen for analytical analysis (Integrated Analytical Solutions, Inc., Berkeley, Calif.).
Solid formulations were taken up in PEG400:water at 200 mg/cc for free base, arginine, and lysine complexes, and also at 400 mg/cc for lysine complex and dosed by oral gavage 10 mL/kg to provide the P-1496 doses indicated in Table 10B.

[2] = biological target: B-Raf V600E (Homo sapiens, UniProt P15056, V600E); assay: Kinase activity assay, B-Raf V600E; type: biochemical; conditions: read-out: activity toward kinase B-Raf V600E, IC50
Chain of B-Raf V600E (P15056 whole entry V600E): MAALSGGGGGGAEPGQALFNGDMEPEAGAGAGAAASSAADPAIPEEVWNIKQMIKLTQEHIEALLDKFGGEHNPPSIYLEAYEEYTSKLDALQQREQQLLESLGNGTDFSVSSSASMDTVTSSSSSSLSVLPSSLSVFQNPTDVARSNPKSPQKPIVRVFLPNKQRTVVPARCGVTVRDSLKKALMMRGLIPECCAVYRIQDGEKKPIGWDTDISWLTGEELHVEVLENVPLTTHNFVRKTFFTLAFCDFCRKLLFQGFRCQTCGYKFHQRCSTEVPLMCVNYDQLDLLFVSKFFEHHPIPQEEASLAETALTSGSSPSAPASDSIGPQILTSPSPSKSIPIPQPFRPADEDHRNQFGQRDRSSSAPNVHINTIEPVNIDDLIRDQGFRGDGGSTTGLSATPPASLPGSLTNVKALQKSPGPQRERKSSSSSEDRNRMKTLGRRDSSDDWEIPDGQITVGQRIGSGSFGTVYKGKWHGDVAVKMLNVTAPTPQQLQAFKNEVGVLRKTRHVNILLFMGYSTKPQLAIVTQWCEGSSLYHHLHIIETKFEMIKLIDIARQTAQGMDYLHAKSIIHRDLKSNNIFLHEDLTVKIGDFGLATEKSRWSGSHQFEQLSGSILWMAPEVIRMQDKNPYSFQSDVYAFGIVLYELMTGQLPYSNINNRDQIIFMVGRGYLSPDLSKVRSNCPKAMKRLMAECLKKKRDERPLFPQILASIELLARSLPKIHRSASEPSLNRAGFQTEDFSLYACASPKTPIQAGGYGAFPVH

[3] = biological target: Kdr (Homo sapiens, UniProt P35968); assay: Kinase activity assay, Kdr
Chain of Kdr (P35968 20-1356): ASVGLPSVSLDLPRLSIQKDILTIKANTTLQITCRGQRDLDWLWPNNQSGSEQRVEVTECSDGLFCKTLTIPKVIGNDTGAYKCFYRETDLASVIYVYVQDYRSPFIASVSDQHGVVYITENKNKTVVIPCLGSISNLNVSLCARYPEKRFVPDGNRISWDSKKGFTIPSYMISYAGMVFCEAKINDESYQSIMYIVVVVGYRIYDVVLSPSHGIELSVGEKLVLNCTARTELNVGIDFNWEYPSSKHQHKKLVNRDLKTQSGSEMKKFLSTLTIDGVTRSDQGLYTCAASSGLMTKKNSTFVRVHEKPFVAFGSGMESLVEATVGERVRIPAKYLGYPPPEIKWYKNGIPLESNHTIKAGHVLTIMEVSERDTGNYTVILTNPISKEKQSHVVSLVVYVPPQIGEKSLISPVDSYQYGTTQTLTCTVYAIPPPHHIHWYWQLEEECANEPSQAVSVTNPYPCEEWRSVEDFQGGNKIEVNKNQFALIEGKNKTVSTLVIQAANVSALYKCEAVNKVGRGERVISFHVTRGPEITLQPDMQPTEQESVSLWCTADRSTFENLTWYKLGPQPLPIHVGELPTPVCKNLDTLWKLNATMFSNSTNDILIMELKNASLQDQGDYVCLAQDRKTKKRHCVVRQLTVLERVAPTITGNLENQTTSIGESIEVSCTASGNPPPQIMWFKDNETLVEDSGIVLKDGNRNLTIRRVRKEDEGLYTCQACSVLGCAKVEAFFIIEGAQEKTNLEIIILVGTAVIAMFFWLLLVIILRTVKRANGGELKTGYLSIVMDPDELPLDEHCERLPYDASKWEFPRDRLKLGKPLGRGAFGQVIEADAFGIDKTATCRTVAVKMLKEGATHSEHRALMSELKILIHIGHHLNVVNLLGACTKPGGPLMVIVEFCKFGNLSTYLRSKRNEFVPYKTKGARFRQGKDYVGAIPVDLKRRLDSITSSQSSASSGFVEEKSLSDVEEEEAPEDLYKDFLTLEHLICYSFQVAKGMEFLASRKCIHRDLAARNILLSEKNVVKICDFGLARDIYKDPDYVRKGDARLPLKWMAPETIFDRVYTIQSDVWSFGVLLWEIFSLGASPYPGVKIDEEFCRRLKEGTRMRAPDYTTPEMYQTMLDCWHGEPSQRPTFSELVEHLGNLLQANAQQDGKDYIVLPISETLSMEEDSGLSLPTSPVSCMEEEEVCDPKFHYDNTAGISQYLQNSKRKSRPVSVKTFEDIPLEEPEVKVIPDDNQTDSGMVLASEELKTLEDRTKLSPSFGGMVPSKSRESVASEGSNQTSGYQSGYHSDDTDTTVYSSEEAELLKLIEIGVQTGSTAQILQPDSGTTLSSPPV

[4] = biological target: Src (Homo sapiens, UniProt P12931); assay: Kinase activity assay, Src
[5] = biological target: TrkA (Homo sapiens, UniProt P04629); assay: Kinase activity assay, TrkA
Chain of TrkA (P04629 33-796): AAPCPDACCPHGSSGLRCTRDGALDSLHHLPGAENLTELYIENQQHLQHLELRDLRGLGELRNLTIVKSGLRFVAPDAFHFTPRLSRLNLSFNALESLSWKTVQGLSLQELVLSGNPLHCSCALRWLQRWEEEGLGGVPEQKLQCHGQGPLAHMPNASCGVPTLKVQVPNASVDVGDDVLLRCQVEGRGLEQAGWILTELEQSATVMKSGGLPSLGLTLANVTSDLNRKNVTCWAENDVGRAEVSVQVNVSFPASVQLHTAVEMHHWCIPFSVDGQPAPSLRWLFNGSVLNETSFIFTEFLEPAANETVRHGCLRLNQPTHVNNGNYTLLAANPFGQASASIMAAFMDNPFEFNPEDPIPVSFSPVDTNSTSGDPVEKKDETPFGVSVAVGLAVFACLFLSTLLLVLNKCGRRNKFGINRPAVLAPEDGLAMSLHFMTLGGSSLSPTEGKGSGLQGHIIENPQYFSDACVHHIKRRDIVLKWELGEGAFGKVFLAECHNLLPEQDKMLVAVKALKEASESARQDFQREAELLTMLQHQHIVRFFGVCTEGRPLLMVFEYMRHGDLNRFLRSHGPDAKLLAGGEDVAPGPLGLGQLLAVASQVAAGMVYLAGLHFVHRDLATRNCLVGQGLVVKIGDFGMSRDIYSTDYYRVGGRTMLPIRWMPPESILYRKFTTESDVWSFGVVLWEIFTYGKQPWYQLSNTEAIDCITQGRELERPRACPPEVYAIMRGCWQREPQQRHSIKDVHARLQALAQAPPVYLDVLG

[6] = biological target: T1, A-Raf (Homo sapiens, UniProt P10398); assay: Kinase activity assay, A-Raf
T1 sequence (P10398 1-606): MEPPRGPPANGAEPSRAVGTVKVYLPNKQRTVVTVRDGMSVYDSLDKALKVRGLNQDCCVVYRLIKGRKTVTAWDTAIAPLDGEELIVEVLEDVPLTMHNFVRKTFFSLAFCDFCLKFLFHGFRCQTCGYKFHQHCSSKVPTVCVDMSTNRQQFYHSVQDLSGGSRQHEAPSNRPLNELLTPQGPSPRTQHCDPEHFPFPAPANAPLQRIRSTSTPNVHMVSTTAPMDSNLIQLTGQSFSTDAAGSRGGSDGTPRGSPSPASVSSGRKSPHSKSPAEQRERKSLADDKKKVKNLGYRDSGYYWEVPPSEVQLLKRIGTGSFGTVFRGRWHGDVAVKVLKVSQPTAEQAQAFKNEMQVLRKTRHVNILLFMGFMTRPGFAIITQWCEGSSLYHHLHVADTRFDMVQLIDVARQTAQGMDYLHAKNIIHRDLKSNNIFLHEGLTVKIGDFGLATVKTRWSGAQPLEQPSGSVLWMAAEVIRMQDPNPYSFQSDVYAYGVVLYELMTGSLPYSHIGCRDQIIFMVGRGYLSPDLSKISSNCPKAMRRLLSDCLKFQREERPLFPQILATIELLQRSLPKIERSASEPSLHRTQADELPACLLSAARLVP

[7] = biological target: C-Raf (Homo sapiens, UniProt P04049); assay: Kinase activity assay, C-Raf
[8] = biological target: MAP4K4 (Homo sapiens, UniProt O95819); assay: Kinase activity assay, MAP4K4
Chain of MAP4K4 (O95819 whole entry): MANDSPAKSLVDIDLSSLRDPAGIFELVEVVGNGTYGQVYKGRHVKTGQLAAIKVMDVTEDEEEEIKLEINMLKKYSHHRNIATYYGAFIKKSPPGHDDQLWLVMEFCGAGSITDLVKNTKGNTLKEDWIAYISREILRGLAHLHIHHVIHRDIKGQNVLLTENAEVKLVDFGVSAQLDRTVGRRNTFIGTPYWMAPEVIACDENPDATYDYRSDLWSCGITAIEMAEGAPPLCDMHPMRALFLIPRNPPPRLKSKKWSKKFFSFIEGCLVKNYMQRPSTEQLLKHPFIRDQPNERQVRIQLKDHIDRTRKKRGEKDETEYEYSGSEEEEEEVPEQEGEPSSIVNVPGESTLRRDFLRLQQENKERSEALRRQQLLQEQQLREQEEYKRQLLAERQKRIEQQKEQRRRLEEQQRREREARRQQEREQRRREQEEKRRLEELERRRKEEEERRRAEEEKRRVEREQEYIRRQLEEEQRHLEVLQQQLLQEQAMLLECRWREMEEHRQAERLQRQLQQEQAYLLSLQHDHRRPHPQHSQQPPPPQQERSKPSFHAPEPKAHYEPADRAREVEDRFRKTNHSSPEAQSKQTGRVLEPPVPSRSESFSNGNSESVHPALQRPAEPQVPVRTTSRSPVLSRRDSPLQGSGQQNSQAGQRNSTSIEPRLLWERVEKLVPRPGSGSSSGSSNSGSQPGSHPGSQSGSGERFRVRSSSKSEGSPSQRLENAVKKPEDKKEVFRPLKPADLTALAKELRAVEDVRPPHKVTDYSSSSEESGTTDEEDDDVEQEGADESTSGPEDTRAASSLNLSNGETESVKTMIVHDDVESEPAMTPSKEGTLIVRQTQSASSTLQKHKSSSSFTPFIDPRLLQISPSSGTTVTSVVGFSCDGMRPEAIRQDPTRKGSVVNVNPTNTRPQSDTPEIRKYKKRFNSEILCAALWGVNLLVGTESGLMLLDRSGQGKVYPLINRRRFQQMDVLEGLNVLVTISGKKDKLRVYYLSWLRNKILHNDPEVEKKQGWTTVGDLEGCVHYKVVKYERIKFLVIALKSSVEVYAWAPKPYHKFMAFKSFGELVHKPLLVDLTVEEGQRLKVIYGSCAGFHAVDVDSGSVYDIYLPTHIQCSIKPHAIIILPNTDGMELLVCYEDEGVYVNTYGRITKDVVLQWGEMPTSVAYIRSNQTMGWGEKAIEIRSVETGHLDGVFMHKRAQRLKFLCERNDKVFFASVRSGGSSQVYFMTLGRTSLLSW

[9] = biological target: B-Raf (Homo sapiens, UniProt P15056); assay: Kinase activity assay, B-Raf; type: biochemical; conditions: read-out: activity toward kinase B-Raf, IC50
Chain of B-Raf (P15056 whole entry): as the sequence (P15056 whole entry V600E) above, with E600V counted along it

[10] = biological target: Btk (Homo sapiens, UniProt Q06187); assay: Kinase activity assay, Btk
[11] = biological target: Fms (Homo sapiens, UniProt P07333); assay: Kinase activity assay, Fms
[12] = biological target: Kit (Homo sapiens, UniProt P10721); assay: Kinase activity assay, Kit
Chain of Kit (P10721 26-976): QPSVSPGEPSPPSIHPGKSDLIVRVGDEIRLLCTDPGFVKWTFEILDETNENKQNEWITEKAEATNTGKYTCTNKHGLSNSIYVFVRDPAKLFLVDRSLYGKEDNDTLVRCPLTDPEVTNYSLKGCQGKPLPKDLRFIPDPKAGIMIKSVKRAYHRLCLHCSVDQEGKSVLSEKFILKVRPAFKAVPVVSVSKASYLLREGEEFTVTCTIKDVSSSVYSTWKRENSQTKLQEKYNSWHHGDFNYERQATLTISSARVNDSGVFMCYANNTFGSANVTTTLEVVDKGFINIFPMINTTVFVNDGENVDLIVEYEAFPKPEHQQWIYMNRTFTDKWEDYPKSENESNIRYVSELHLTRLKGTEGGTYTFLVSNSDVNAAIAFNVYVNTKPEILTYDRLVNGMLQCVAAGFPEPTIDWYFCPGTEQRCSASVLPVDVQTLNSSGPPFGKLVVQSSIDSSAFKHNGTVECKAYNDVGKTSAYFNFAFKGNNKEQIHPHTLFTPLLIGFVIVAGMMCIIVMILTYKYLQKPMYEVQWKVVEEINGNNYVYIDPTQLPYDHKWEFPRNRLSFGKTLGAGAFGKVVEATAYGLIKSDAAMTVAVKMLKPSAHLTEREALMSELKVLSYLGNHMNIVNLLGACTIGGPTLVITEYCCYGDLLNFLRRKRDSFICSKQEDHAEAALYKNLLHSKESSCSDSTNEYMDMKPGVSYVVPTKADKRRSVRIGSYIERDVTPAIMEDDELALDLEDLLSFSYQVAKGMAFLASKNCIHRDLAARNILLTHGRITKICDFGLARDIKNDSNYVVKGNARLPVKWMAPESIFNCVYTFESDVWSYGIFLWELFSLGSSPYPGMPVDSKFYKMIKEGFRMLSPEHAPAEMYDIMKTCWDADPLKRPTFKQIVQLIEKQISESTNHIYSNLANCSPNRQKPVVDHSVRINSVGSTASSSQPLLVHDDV

[13] = biological target: T2, TEC (Homo sapiens, UniProt P42680); assay: Kinase activity assay, TEC
T2 sequence (P42680 1-631): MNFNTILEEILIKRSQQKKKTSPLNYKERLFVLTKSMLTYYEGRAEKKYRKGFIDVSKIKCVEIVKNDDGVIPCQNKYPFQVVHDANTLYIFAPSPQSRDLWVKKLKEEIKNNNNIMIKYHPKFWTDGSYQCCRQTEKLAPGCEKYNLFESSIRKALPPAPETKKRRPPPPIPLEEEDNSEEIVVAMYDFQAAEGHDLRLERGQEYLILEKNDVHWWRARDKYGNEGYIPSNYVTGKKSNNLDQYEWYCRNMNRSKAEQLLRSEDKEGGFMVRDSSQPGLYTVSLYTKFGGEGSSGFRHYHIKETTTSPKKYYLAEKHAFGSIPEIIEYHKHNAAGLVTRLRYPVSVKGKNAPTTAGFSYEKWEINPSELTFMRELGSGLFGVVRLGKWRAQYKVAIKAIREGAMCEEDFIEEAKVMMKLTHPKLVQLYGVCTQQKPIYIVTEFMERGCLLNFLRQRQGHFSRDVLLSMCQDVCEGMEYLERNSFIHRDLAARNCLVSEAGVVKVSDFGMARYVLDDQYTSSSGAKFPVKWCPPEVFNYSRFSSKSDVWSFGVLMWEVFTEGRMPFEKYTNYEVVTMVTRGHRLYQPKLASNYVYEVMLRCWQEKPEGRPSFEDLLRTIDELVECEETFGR

[14] = biological target: Flt1 (Homo sapiens, UniProt P17948); assay: Kinase activity assay, Flt1
[15] = biological target: PI3Kα (Homo sapiens, UniProt P42336); assay: Kinase activity assay, PI3Kα
[16] = dose 100, in PEG400:water by oral gavage 10 mL/kg
[17] = dose 200, in PEG400:water by oral gavage 10 mL/kg

SMILES	AUC∞/dose [1, 16]	Cmax/dose [1, 16]	biopharmaceutical properties, comparison in words [1]	AUC∞/dose [1, 17]	Cmax/dose [1, 17]	IC50 [2] [µM]	IC50 [3] [µM]	IC50 [4] [µM]	IC50 [5] [µM]	IC50 [6] [µM]	IC50 [7] [µM]	IC50 [8] [µM]	IC50 [9] [µM]	IC50 [10] [µM]	IC50 [11] [µM]	IC50 [12] [µM]	IC50 [13] [µM]	IC50 [14] [µM]	IC50 [15] [µM]
CCCS(=O)(=O)Nc1ccc(F)c(C(=O)c2c[nH]c3ncc(-c4cnc(OC)nc4)cc23)c1F [P-1496 arginine complex, propane-1-sulfonic acid {2,4-difluoro-3-[5-(2-methoxy-pyrimidin-5-yl)-1H-pyrrolo[2,3-b]pyridine-3-carbonyl]-phenyl}-amide]	3,620	159 (ng/mL)/(mg/kg)	improved biopharmaceutical properties	–	–	–	–	–	–	–	–	–	–	–	–	–	–	–	–
CCCS(=O)(=O)Nc1ccc(F)c(C(=O)c2c[nH]c3ncc(-c4cnc(OC)nc4)cc23)c1F [P-1496 free base, Propane-1-sulfonic acid {2,4-difluoro-3-[5-(2-methoxy-pyrimidin-5-yl)-1H-pyrrolo[2,3-b]pyridine-3-carbonyl]-phenyl}-amide]	1,970	106 (ng/mL)/(mg/kg)	–	–	–	–	–	–	–	–	–	–	–	–	–	–	–	–	–
CCCS(=O)(=O)Nc1ccc(F)c(C(=O)c2c[nH]c3ncc(-c4cnc(OC)nc4)cc23)c1F [P-1496 lysine complex, propane-1-sulfonic acid {2,4-difluoro-3-[5-(2-methoxy-pyrimidin-5-yl)-1H-pyrrolo[2,3-b]pyridine-3-carbonyl]-phenyl}-amide]	3,210	283 (ng/mL)/(mg/kg)	improved biopharmaceutical properties	2,750	155 (ng/mL)/(mg/kg)	–	–	–	–	–	–	–	–	–	–	–	–	–	–
COc1cnc2[nH]cc(C(=O)c3c(F)ccc(NS(=O)(=O)c4ncn[nH]4)c3F)c2c1 [P-2061, 2H-[1,2,4]Triazole-3-sulfonic acid [2,4-difluoro-3-(5-methoxy-1H-pyrrolo[2,3-b]pyridine-3-carbonyl)-phenyl]-amide]	–	–	–	–	–	≤ 10	≤ 10	≤ 10	≤ 10	≤ 10	≤ 10	≤ 10	–	–	–	–	–	–	–
Cn1cc(-c2cnc3[nH]cc(C(=O)c4cc(NS(=O)(=O)c5cccc(F)c5)ccc4F)c3c2)cn1 [P-2105, 3-Fluoro-N-{4-fluoro-3-[5-(1-methyl-1H-pyrazol-4-yl)-1H-pyrrolo[2,3-b]pyridine-3-carbonyl]-phenyl}-benzenesulfonamide]	–	–	–	–	–	≤ 10	≤ 10	≤ 10	≤ 10	–	≤ 10	≤ 10	≤ 10	≤ 10	≤ 10	≤ 10	≤ 10	≤ 10	–
CCCS(=O)(=O)Nc1ccc(F)c(C(=O)c2c[nH]c3ncc(-c4ccc(S(=O)(=O)NC5CC5)cc4)cc23)c1F [P-2168, N-Cyclopropyl-4-{3-[2,6-difluoro-3-(propane-1-sulfonylamino)-benzoyl]-1H-pyrrolo[2,3-b]pyridin-5-yl}-benzenesulfonamide]	–	–	–	–	–	≤ 10	≤ 10	≤ 10	≤ 10	–	≤ 10	–	≤ 10	≤ 10	≤ 10	≤ 10	–	–	–
CCCS(=O)(=O)Nc1ccc(F)c(C(=O)c2c[nH]c3ncc(-c4cn[nH]c4)cc23)c1F [P-2174, Propane-1-sulfonic acid {2,4-difluoro-3-[5-(1H-pyrazol-4-yl)-1H-pyrrolo[2,3-b]pyridine-3-carbonyl]-phenyl}-amide]	–	–	–	–	–	≤ 10	≤ 10	≤ 10	≤ 10	–	–	–	≤ 10	≤ 10	≤ 10	≤ 10	≤ 10	–	≤ 10
CCCS(=O)(=O)Nc1ccc(F)c(C(=O)c2c[nH]c3ncc(-c4ccn[nH]4)cc23)c1F [P-2176]	–	–	–	–	–	≤ 10	≤ 10	≤ 10	≤ 10	–	–	≤ 10	≤ 10	≤ 10	≤ 10	≤ 10	–	–	–
CCCS(=O)(=O)Nc1ccc(F)c(C(=O)c2c[nH]c3ncc(C#CCOC)cc23)c1F [P-2239, Propane-1-sulfonic acid {2,4-difluoro-3-[5-(3-methoxy-prop-1-ynyl)-1H-pyrrolo[2,3-b]pyridine-3-carbonyl]-phenyl}-amide]	–	–	–	–	–	≤ 10	≤ 10	≤ 10	≤ 10	≤ 10	≤ 10	≤ 10	≤ 10	–	≤ 10	≤ 10	–	–	–
CCCS(=O)(=O)Nc1ccc(F)c(C(=O)c2c[nH]c3ncc(CCCOC)cc23)c1F [P-2240, propane-1-sulfonic acid {2,4-difluoro-3-[5-(3-methoxy-propyl)-1H-pyrrolo[2,3-b]pyridine-3-carbonyl]-phenyl}-amide]	–	–	–	–	–	≤ 10	≤ 10	≤ 10	≤ 10	≤ 10	≤ 10	≤ 10	≤ 10	–	–	≤ 10	–	–	–
CCCCS(=O)(=O)Nc1ccc(F)c(C(=O)c2c[nH]c3ncc(-c4cnn(C)c4)cc23)c1F [P-2302, Butane-1-sulfonic acid {2,4-difluoro-3-[5-(1-methyl-1H-pyrazol-4-yl)-1H-pyrrolo[2,3-b]pyridine-3-carbonyl]-phenyl}-amide]	–	–	–	–	–	≤ 10	≤ 10	≤ 10	≤ 10	–	–	–	≤ 10	≤ 10	≤ 10	≤ 10	≤ 10	≤ 10	–
Cn1cc(-c2cnc3[nH]cc(C(=O)c4c(F)ccc(NS(=O)(=O)C(F)(F)F)c4F)c3c2)cn1 [P-2345, N-{2,4-Difluoro-3-[5-(1-methyl-1H-pyrazol-4-yl)-1H-pyrrolo[2,3-b]pyridine-3-carbonyl]-phenyl}-C,C,C-trifluoro-methanesulfonamide]	–	–	–	–	–	≤ 10	≤ 10	≤ 10	≤ 10	–	–	–	≤ 10	≤ 10	–	≤ 10	–	–	–
